Data as given in patent US9598363B2, “Plant growth regulating compounds” (SYNGENTA PARTICIPATIONS AG, priority 2013, dated 2017).

Key:
[1] = tested on: Orobanche cumana Wallr. seeds; assay: Orobanche cumana seed germination test on glass fiber filter paper in petri dishes; assay type: in vivo; conditions: preconditioned Orobanche cumana seeds, N = 5 × 100 seeds
Procedure: The effect of compounds of Formula (I) on germination of Orobanche cumana Wallr. seeds was evaluated on glass fiber filter paper (GFFP) in petri dishes. Seeds were preconditioned at moisture and suitable temperature to become responsive to the specific chemical germination stimulants.
Test compounds were dissolved in DMSO (10,000 mg/L) and stored at room temperature in a desiccators with desiccants. The stock solutions were dissolved with deionised water to the appropriate final test concentration.
Seeds of O. cumana race ‘F’ were collected from sunflower fields in Manzanilla (Seville, Spain) in 2008 (seed lot IN153) and stored at room temperature. To separate seeds from heavy organic debris, a modified sucrose floatation technique as described by Hartman & Tanimonure (Plant Disease (1991), 75, p. 494) was applied. Seeds were filled into a separation funnel and stirred in water. When seeds floated to the surface, the water fraction containing heavy debris was discarded. Seeds were re-suspended in 2.5 M sucrose solution (specific gravity of 1.20) and heavy debris was allowed to settle down for 60 min. After removing debris, seeds were disinfected in 1% sodium hypochlorite solution and 0.025% (v/v) Tween 20 for 2 min. The seeds were decanted onto two layers of cheesecloth, rinsed with sterile deionised water and re-suspended in sterile deionised water. 2 mL of the seed suspension containing approximately 150-400 seeds was spread evenly on two layers of sterile glass fiber filter paper disc ([…]) in Petri dishes (Ø9 cm). After wetting the discs with 3 mL sterile deionised water, petri dishes were sealed with parafilm. Seeds were incubated for 10 days at 20° C. in the dark for seed conditioning. The upper disc with conditioned seeds was briefly dried, transferred to a petri dish lined with a dry GFFP disc, and wetted with 6 mL of the appropriate test solution. The compounds of Formula (I) were tested at concentrations of 0.01, 0.1, and 1 mg/L. The strigolactone analogue GR24 (commercially available as a mixture of isomers) was included as positive control and 0.01% DMSO as negative control. All treatments were tested in five replicates. Seeds were re-incubated at 20° C. in the dark and examined for germination 10 days later. The radicles of germinated seeds were stained for 5 min with blue ink (PELIKAN #4001, Germany) in 5% acetic acid according to Long et al. (Seed Science Research (2008), 18, p. 125). After staining, seeds were photographed using a camera stand mounted with a digital SLR camera (Canon EOS 5D). Germination of 100 seeds per replicate was evaluated on digital images. Seeds were considered germinated when the radicle protruded from the seed coat.

[2] = 1 mg/L, control (0.01% DMSO): 0.75% germination
[3] = concentration 0.01 mg/L, control (0.01% DMSO): 1.4% germination
[4] = concentration 0.1 mg/L, control (0.01% DMSO): 1.4% germination
[5] = concentration 1 mg/L, control (0.01% DMSO): 1.4% germination

Row | SMILES | Germination (%) [1, 2] | melting point | Germination (%) [1, 3] | Germination (%) [1, 4] | Germination (%) [1, 5]
1 | CC1=CC(OC(=O)NCc2ccccc2)N(C)C1=O (stereo not shown) [Ia-2, (1,4-dimethyl-5-oxo-2H-pyrrol-2-yl) N-benzylcarbamate] | 76.6% | 106 °C | – | – | –
2 | C#CCN1C(=O)C(C)=CC1Oc1ccc(Br)cc1 (stereo not shown) | – | 92 to 94 °C | – | – | –
3 | COCN1C(=O)C(C)=CC1OC(=O)NCc1ccccc1 (stereo not shown) [Ia-1, [1-(methoxymethyl)-4-methyl-5-oxo-2H-pyrrol-2-yl]N-benzylcarbamate] | 86.8% | – | – | – | –
4 | CC1=CC(OC(=O)NCc2ccccc2)N(CC(F)(F)F)C1=O (stereo not shown) [Ia-5, [4-methyl-5-oxo-1-(2,2,2-trifluoroethyl)-2H-pyrrol-2-yl]N-benzylcarbamate] | 16.2% | – | – | – | –
5 | CC1=CC(OC(=O)NCc2ccccc2)OC1=O (stereo not shown) [reference compound] | – | – | 8.8% | 41.8% | 82.6%
6 | CC1=CC(O/C=C2/C(=O)OC3c4ccccc4CC23)OC1=O (stereo not shown) [reference compound] | – | – | 65% | 78.4% | 86.6%
7 | CON1C(=O)C(C)=CC1OC(=O)NCc1ccccc1 (stereo not shown) [Ia-3, (1-methoxy-4-methyl-5-oxo-2H-pyrrol-2-yl) N-benzylcarbamate] | 44.8% | – | – | – | –
8 | CC1=CC(OC(=O)NCc2ccccc2)N(C)C1=O (stereo not shown) [drawing 24] | – | – | 60.8% | 67.4% | 76.6%
9 | CC1=CC(OC(=O)NCc2ccccc2)N(C2CC2)C1=O (stereo not shown) [Ia-6, (1-cyclopropyl-4-methyl-5-oxo-2H-pyrrol-2-yl) N-benzylcarbamate] | 76.4% | – | – | – | –
